Key:
CCRF-CEM = assay: Growth inhibition of human CCRF-CEM cells assessed as cell growth at 10 uM incubated for 48 hrs by sulforhodamine B assay relative to control; assay type: functional; settings: read-out: Activity
COLO 205 = assay: Growth inhibition of human COLO 205 cells assessed as cell growth at 10 uM incubated for 48 hrs by sulforhodamine B assay relative to control; assay type: functional; settings: read-out: Activity
SW-620 = assay: Growth inhibition of human SW-620 cells assessed as cell growth at 10 uM incubated for 48 hrs by sulforhodamine B assay relative to control; assay type: functional; settings: read-out: Activity
SF-539 = assay: Growth inhibition of human SF-539 cells assessed as cell growth at 10 uM incubated for 48 hrs by sulforhodamine B assay relative to control; assay type: functional; settings: read-out: Activity
SNB-75 = assay: Growth inhibition of human SNB-75 cells assessed as cell growth at 10 uM incubated for 48 hrs by sulforhodamine B assay relative to control; assay type: functional; settings: read-out: Activity
LOX IMVI = assay: Growth inhibition of human LOX IMVI cells assessed as cell growth at 10 uM incubated for 48 hrs by sulforhodamine B assay relative to control; assay type: functional; settings: read-out: Activity
SK-MEL-28 = assay: Growth inhibition of human SK-MEL-28 cells assessed as cell growth at 10 uM incubated for 48 hrs by sulforhodamine B assay relative to control; assay type: functional; settings: read-out: Activity
SK-MEL-5 = assay: Growth inhibition of human SK-MEL-5 cells assessed as cell growth at 10 uM incubated for 48 hrs by sulforhodamine B assay relative to control; assay type: functional; settings: read-out: Activity
UACC-257 = assay: Growth inhibition of human UACC-257 cells assessed as cell growth at 10 uM incubated for 48 hrs by sulforhodamine B assay relative to control; assay type: functional; settings: read-out: Activity
OVCAR-4 = assay: Growth inhibition of human OVCAR-4 cells assessed as cell growth at 10 uM incubated for 48 hrs by sulforhodamine B assay relative to control; assay type: functional; settings: read-out: Activity
NCI/ADR-RES = assay: Growth inhibition of human NCI/ADR-RES cells assessed as cell growth at 10 uM incubated for 48 hrs by sulforhodamine B assay relative to control; assay type: functional; settings: read-out: Activity
SK-OV-3 = assay: Growth inhibition of human SK-OV-3 cells assessed as cell growth at 10 uM incubated for 48 hrs by sulforhodamine B assay relative to control; assay type: functional; settings: read-out: Activity
786-0 = assay: Growth inhibition of human 786-0 cells assessed as cell growth at 10 uM incubated for 48 hrs by sulforhodamine B assay relative to control; assay type: functional; settings: read-out: Activity
PC-3 = assay: Growth inhibition of human PC-3 cells assessed as cell growth at 10 uM incubated for 48 hrs by sulforhodamine B assay relative to control; assay type: functional; settings: read-out: Activity
DU-145 = assay: Growth inhibition of human DU-145 cells assessed as cell growth at 10 uM incubated for 48 hrs by sulforhodamine B assay relative to control; assay type: functional; settings: read-out: Activity
MDA-MB-468 = assay: Growth inhibition of human MDA-MB-468 cells assessed as cell growth at 10 uM incubated for 48 hrs by sulforhodamine B assay relative to control; assay type: functional; settings: read-out: Activity
SF-295 = assay: Growth inhibition of human SF-295 cells assessed as cell growth at 10 uM incubated for 48 hrs by sulforhodamine B assay relative to control; assay type: functional; settings: read-out: Activity
Hs-578T = assay: Growth inhibition of human Hs-578T cells assessed as cell growth at 10 uM incubated for 48 hrs by sulforhodamine B assay relative to control; assay type: functional; settings: read-out: Activity
A498 = assay: Growth inhibition of human A498 cells assessed as cell growth at 10 uM incubated for 48 hrs by sulforhodamine B assay relative to control; assay type: functional; settings: read-out: Activity
[1] = tested on: Poly(dA-dT)oligonucleotide; assay: Binding affinity to minor groove of poly(dA:dT) dsDNA (unknown origin) assessed as change in melting temperature by UV-vis spectrophotometry based DNA melting assay; assay type: nucleic-acid assay
[2] = tested on: Poly(dA-dT)oligonucleotide; assay: Displacement of ethidium bromide from minor groove of poly(dA:dT) dsDNA (unknown origin) by fluorescence spectrophotometry; assay type: nucleic-acid assay

SMILES | growth at 10 µM (CCRF-CEM) [%] | growth at 10 µM (COLO 205) [%] | growth at 10 µM (SW-620) [%] | growth at 10 µM (SF-539) [%] | growth at 10 µM (SNB-75) [%] | growth at 10 µM (LOX IMVI) [%] | growth at 10 µM (SK-MEL-28) [%] | growth at 10 µM (SK-MEL-5) [%] | growth at 10 µM (UACC-257) [%] | growth at 10 µM (OVCAR-4) [%] | growth at 10 µM (NCI/ADR-RES) [%] | growth at 10 µM (SK-OV-3) [%] | growth at 10 µM (786-0) [%] | growth at 10 µM (PC-3) [%] | growth at 10 µM (DU-145) [%] | growth at 10 µM (MDA-MB-468) [%] | growth at 10 µM (SF-295) [%] | growth at 10 µM (Hs-578T) [%] | ΔTm [1] [°C] | C50 [2] [µM] | further results
CC(=O)Nc1cccc(NC(=O)c2ccc(C(=O)Nc3cc(CO)cc(NC(C)=O)c3)cc2)c1 | 93 | 111 | 104 | 106 | 94.9 | 103 | 111 | 103 | 101 | 68.7 | 113 | 103 | 112 | 101 | 117 | 110 | – | – | – | – | –
CC(=O)Nc1cc(CO)cc(NC(=O)c2ccc(C(=O)Nc3cc(CO)cc(NC(C)=O)c3)cc2)c1 | 87.4 | 109 | 114 | 99.6 | 102 | 96.8 | 117 | 104 | 106 | – | 110 | 101 | 103 | 97.9 | 127 | 101 | 96.8 | 101 | – | – | –
CC(=O)Nc1cc(CO)cc(NC(=O)c2ccc(NC(=O)CCCN3CCOCC3)cc2)c1 | 87 | 106 | 103 | 97.6 | 92.5 | 110 | 113 | 100 | 106 | – | 106 | 104 | 97 | 104 | 115 | 97.8 | 150 | 114 | – | – | –
CC(=O)Nc1cc(CO)cc(NC(=O)c2ccccc2)c1 | 110 | 115 | 106 | 111 | 122 | 99 | 109 | 105 | 104 | 111 | 105 | 99.4 | 104 | 101 | 105 | 106 | 108 | 105 | – | – | growth at 10 µM (A498): 91.6%
CCN(CC)CC(=O)Nc1ccc(C(=O)Nc2cc(CO)cc(NC(C)=O)c2)cc1 | 98.2 | 118 | 109 | 99.7 | 110 | 106 | 116 | 103 | 103 | – | 110 | 107 | 97.4 | 116 | 119 | 99.4 | 136 | – | 10.2 | – | –
CC(=O)Nc1cc(CO)cc(NC(=O)c2ccc(C(=O)Nc3cccc(NC(=O)CCCN(C)C)c3)cc2)c1 | 41.2 | 76.3 | 98.2 | 88 | 62.2 | 88.1 | 85.3 | 77.7 | 88 | 34.8 | 107 | 117 | 104 | 98.6 | 105 | 83.8 | – | – | 30.7 | 118 | –
CC(=O)Nc1ccc(C(=O)Nc2cc(CO)cc(NC(C)=O)c2)cc1 | 82.2 | 118 | 118 | 107 | 96.7 | 105 | 116 | 98.8 | 107 | – | 110 | 105 | 99.4 | 104 | 108 | 97 | – | 121 | – | – | –
CC(=O)Nc1cc(CO)cc(NC(=O)c2ccc(C(=O)NCCCN(C)C)cc2)c1 | 90 | 114 | 107 | 110 | 87.8 | 97.4 | 108 | 96.4 | 107 | 103 | 112 | 106 | 102 | 97.9 | 115 | 91.2 | – | 114 | – | > 1000 | –
CC(=O)Nc1cc(CCl)cc(NC(=O)c2ccc(C(=O)NCCCN(C)C)cc2)c1 | 103 | 111 | 108 | 92.8 | 86 | 95.2 | 107 | 108 | 102 | – | 109 | 107 | 104 | 109 | 112 | 92.9 | 97.6 | 111 | 21.6 | 506 | –
CCN(CC)CC(=O)Nc1cccc(C(=O)Nc2cc(CO)cc(NC(C)=O)c2)c1 | 97.2 | 112 | 115 | 98.7 | 91 | 98.7 | 112 | 102 | 101 | – | 107 | 104 | 98.7 | 102 | 125 | 95.7 | 87 | 130 | 8.7 | > 1000 | –
CC(=O)Nc1cc(CO)cc(NC(=O)c2ccc(C(=O)NCCCN3CCOCC3)cc2)c1 | 94.9 | 106 | 102 | 97.3 | 90.2 | 101 | 102 | 102 | 103 | 67.9 | 113 | 106 | 101 | 100 | 113 | 96 | – | – | – | – | –
CC(=O)Nc1cc(CO)cc(NC(=O)c2cccc(NC(=O)CCCN3CCOCC3)c2)c1 | 89.4 | 110 | 108 | 98.9 | 102 | 99.8 | 115 | 104 | 107 | – | 107 | 104 | 99.4 | 102 | 108 | 92.3 | 120 | 114 | – | – | –
CC(=O)Nc1cccc(NC(=O)c2ccc(C(=O)Nc3cc(CCl)cc(NC(C)=O)c3)cc2)c1 | 90.8 | 108 | 114 | 109 | 113 | 110 | 115 | 102 | 106 | 119 | 109 | 113 | 112 | 95.2 | 119 | 82.2 | – | 114 | – | – | –

From ChEMBL document CHEMBL4715697, “Synthesis and biological activity of benzamide DNA minor groove binders” (2016)
